Legend:
[1] = test system: Human corneal endothelial cells; test: Viability of cells reseeded in medium with DMSO and collected (trypan blue), Example 3; format: cell-based; details: medium containing 10% DMSO
Protocol: (§1) • 1. Collect cells in the same manner as in Example 2 (Steps 1 to 10) and preserve the cells in cryotubes using Cryostor CS2. • 2. Freeze in a programmable freezer from 4° C. to −80° C. at −0.5° C./min. 3. Transfer to a Bicell processing housing previously cooled at −80° C. when a temperature was decreased to −80° C. and cryopreserve the Bicell in a freezer at −80° C. for 3 days. • 4. After 3 days of cryopreservation, thaw the cryotubes in which the cells were preserved in a water bath at 37° C. for 1 to 2 minutes. • 5. Collect the cells in a medium warmed to 37° C. in advance, and measure the number of cells collected and cell viability by trypan blue staining. • 6. Dispense the collected cells into four 15 mL STEMFULLS and centrifuge at 300 G for 5 minutes. • 7. After centrifugation, remove a supernatant, adjust a cell density to 1000 cells/mm^2 using media containing 10%, 5%, 2%, and 0% DMSO, and reseed in 12-well plates. • 8. Photograph the cells under a phase contrast microscope at 1 h, 3 h, 6 h, and 24 h after seeding. • 9. After taking photographs of the cells at each time point, collect all cells in the container, including floating cells, and determine cell viability by trypan blue staining.

[2] = test system: Human corneal endothelial cells; test: Adhesion of thawed cells cultured in medium with addition of DMSO (phase contrast microscopy), Example 3; format: cell-based
Protocol: as §1

C[S+](C)[O-] [DMSO, dimethyl sulfoxide]
viability of cells after reseeded and collected ([1]; at 1 hour): no decrease in viability | viability of cells after reseeded and collected ([1]; subsequent to 1 hour): decrease in viability | cell adhesion ([2]; 5% DMSO, after 3 and 6 hours): less than half of the cells were adherent | cell adhesion ([2]; 5% DMSO, after 1 hour): almost no adherent cells | cell adhesion ([2]; 5% DMSO, after 24 hours): almost no adherent cells | cell adhesion ([2]; 10% DMSO, until 24 hours after seeding): no cells were adherent | adhesion rate compared with medium without DMSO ([2]; medium containing 2% DMSO): not different | number of cells compared with medium without DMSO ([2]; medium supplemented with 5% DMSO): significantly lower | number of cells compared with medium without DMSO ([2]; medium supplemented with 10% DMSO): significantly lower

Reference: patent US20250000083A1, “CRYOPRESERVATION PREPARATION FOR CORNEAL ENDOTHELIAL CELLS AND METHOD FOR PRODUCING SAID CRYOPRESERVATION PREPARATION” (THE DOSHISHA, priority 2021, published 2025)
